Reference: patent EP0997137B1 (Société des Produits Nestlé S.A., priority 1998, dated 2000)

Experiments:
[1] = system: TNF-α secretion of keratinocytes which are treated with TPA; experiment: TNF-α secretion by TPA-treated immortalized human keratinocytes (ELISA of supernatant); format: cell-based; settings: for % of the control: control: TPA without piperonal
Description: These keratinocytes (cf. WO97/23602) are treated in this connection with inflammation-promoting substances, more specifically with a known skin irritant in the form of a phorbol ester (12-O-tetradecanoylphorbol acetate, abbreviated to TPA), and as a response to this treatment they display a typical inflammatory metabolic reaction, in particular an increase in the secretion of the inflammation-promoting cytokine TNF-α (tumour necrosis factor alpha).
A substance which inhibits the secretion of TNF-α in the case of TPA-treated keratinocytes in the above model in a dose-dependent manner is regarded as a potentially anti-inflammatory substance.
(§1) Specifically, the test is carried out by subjecting in vitro human keratinocytes, immortalized in culture, to an inflammation-promoting treatment using the abovementioned 12-O-tetradecanoylphorbol 13-acetate (TPA). The immortalized keratinocyte cell lines used are the cell lines DK2, FK2 or else DK7, which are described in the published International Patent Application WO 97/23602. The cell lines FK2 and DK2 were deposited on 5 October 1995 in accordance with the Budapest Treaty at the DSM depository (Deutsche Sammlung für Mikroorganismen und Zellkulturen GmbH, Mascheroder Weg 1b, D-38124 Braunschweig, Germany) and were given the deposit names DSM ACC2240 and DSM ACC2238. The cell line DK7-NR was deposited on 19 March 1998 at the Pasteur Institute, Paris (CNCM) under the number
I-1996. It is also possible to use an immortalized keratinocyte line HaCaT, which is described by Boukamp et al. in J. Cell. Biol., 106, 761-771, 1988).
Petri dishes (6 cm diameter), which contain 4 ml of the serum-free nutrient medium NR-2 (cf. WO97/23602; Biofluids), were inoculated with the abovementioned immortalized keratinocyte cell lines. As soon as confluence of the cell lawn was observed, the nutrient medium was replaced by a fresh, calcium-enriched nutrient medium NR-2 (1.5 mM CaCl2). The dishes were incubated for 2 days, the nutrient medium was replaced by fresh nutrient medium and the dishes were incubated for a further 2 days. […] In parallel, an identical batch without piperonal additive was prepared.
(§2) During the last 24 h of the above mentioned incubation, TPA in ethanol or a corresponding amount of ethanol was added in an amount of 10 ng/ml. The supernatants were then isolated and, by means of a known ELISA assay (Ruwag AG, Zurich, Switzerland) using specific antibodies to TNF-α (BioSource Inter., US, catalogue numbers KHC0012 and KHC3013), the concentration of TNF-α in the supernatant was determined.

[2] = system: keratinocytes; experiment: Cytotoxic activity on the keratinocytes; settings: concentrations used in the experiments (0.01-0.1%)
[3] = system: TNF-α secretion of keratinocytes; experiment: Control experiments without TPA: TNF-α secretion by immortalized human keratinocytes (ELISA of supernatant); format: cell-based
Description: as §1
Petri dishes (6 cm diameter), which contain 4 ml of the serum-free nutrient medium NR-2 (cf. WO97/23602; Biofluids), were inoculated with the abovementioned immortalized keratinocyte cell lines. As soon as confluence of the cell lawn was observed, the nutrient medium was replaced by a fresh, calcium-enriched nutrient medium NR-2 (1.5 mM CaCl2). The dishes were incubated for 2 days, the nutrient medium was replaced by fresh nutrient medium and the dishes were incubated for a further 2 days.
as §2

[4] = TPA + hydrocortisone (concentration not given)

Q: What does the source list for `C[C@]12CCC(=O)C=C1CC[C@@H]1[C@@H]2[C@@H](O)C[C@@]2(C)[C@H]1CC[C@]2(O)C(=O)CO` [hydrocortisone, reference compound]?
A: Amount of TNF-α determined ([1]; TPA 10 ng/ml + hydrocortisone (concentration not given)): 220.4 pg/mL; % inhibition [1, 4]: 26.4%; % of the control [1, 4]: 73.6%

Q: What does the source list for `O=Cc1ccc2c(c1)OCO2` [piperonal, 3,4-(methylenedioxy)benzaldehyde]?
A: cytotoxic activity [2]: does not exhibit cytotoxic activity; Amount of TNF-α determined ([3]; No TPA + 0.01% of piperonal): 7.9 pg/mL; Amount of TNF-α determined ([3]; No TPA + 0.05% of piperonal): 8.9 pg/mL; Amount of TNF-α determined ([3]; No TPA + 0.1% of piperonal): 6.3 pg/mL; Amount of TNF-α determined ([1]; TPA 10 ng/ml + 0.01% of piperonal): 331.2 pg/mL; Amount of TNF-α determined ([1]; TPA 10 ng/ml + 0.05% of piperonal): 78.1 pg/mL; Amount of TNF-α determined ([1]; TPA 10 ng/ml + 0.1% of piperonal): 100.6 pg/mL; % of the control ([1]; TPA + 0.01% of piperonal): 110.6%; % inhibition ([1]; TPA + 0.05% of piperonal): 73.9%; % of the control ([1]; TPA + 0.05% of piperonal): 26.1%; % inhibition ([1]; TPA + 0.1% of piperonal): 66.4%; % of the control ([1]; TPA + 0.1% of piperonal): 33.6%
